Source: patent US20160138114A1, “Biomarkers of Response to Inhibition of Poly-ADP Ribose Polymerase (PARP) in Cancer” (THE REGENTS OF THE UNIVERSITY OF CALIFORNIA, priority 2013, published 2016)

Assays:
EMF192A = test: BMN673 sensitivity (cell growth) in cancer cell line; format: cell-based, human; conditions: Breast
Description: (§1) This example illustrates that CHD1L amplification correlated with overexpression of CHD1L protein. […] CHD1L protein expression in the NSCLC and breast cancer cell lines was assayed by Western blot with antibodies against CHD1L. […] HCC1937 was used as a negative control for CHD1L protein expression, as the cell line carries a loss of heterozygosity (LOH) of CHD1L. Each of these cell lines was also assayed for sensitivity or resistance to inhibition of PARP by BMN673. Briefly, each cell line was cultured and exposed to a range of concentrations of BMN673 to determine an IC50 value of inhibitory effect on PARP (as evidenced by cell growth) for each cell line (see Table 2).

HCC1187 = test: as above; format: cell-based, human; conditions: HCC1187, Breast
Description: as §1

BT-474 = test: as above; format: cell-based, human; conditions: BT-474, Breast
Description: as §1

MCF7 = test: as above; format: cell-based, human; conditions: MCF7, Breast
Description: as §1

H1838 = test: as above; format: cell-based, human; conditions: H1838, Lung
Description: as §1

HCC1937 = test: as above; format: cell-based, human; conditions: HCC1937, Breast
Description: as §1

BT-20 = test: as above; format: cell-based, human; conditions: BT-20, Breast
Description: as §1

MDA-MB-436 = test: as above; format: cell-based, human; conditions: MDA-MB-436, Breast
Description: as §1

184B5 = test: as above; format: cell-based, human; conditions: 184B5, Breast
Description: as §1

CaLu1 = test: as above; format: cell-based, human; conditions: CaLu1, Lung
Description: as §1

H1651 = test: as above; format: cell-based, human; conditions: H1651, Lung
Description: as §1

H1568 = test: as above; format: cell-based, human; conditions: H1568, Lung
Description: as §1

184B5 parental cell line = test: BMN673 treatment of CHD1L knock-in study, parental line; format: cell-based; conditions: Homo sapiens, low CHD1L protein expression
Description: (§2) This example illustrates the creation of cell lines overexpressing CHD1L protein by vector knock-in. Briefly, breast cancer cell line 184B5 cells were transduced with lentivirus containing CHD1L cDNA. After transduction, clones transfected with CHD1L were selected with 500 μg/mL G418 for 1 week. Expression of CHD1L protein in the 24 knock-in clones and the parental cell line 184B5 was detected by Western blot. […] This example illustrates that the knock-in of CHD1L protein sensitized breast cancer cells to BMN673 treatment. Briefly, 184B5 knock-in clones 7 and 14 (i.e., cells with high CHD1L protein expression) were treated with BMN673 and compared with the 184B5 parental cell line (i.e., cells with low CHD1L protein expression) treated with BMN673, with respect to percent death from baseline (FIG. 5, top panel) and percent growth inhibition (FIG. 5, bottom panel).

[1] = system: 184B5 CHD1L knock-in clone 7; test: BMN673 treatment of CHD1L knock-in clone; format: cell-based; conditions: Homo sapiens; 184B5 knock-in clone 7, high CHD1L protein expression
Description: as §2

[2] = system: 184B5 CHD1L knock-in clone 14; test: BMN673 treatment of CHD1L knock-in clone; format: cell-based; conditions: Homo sapiens; 184B5 knock-in clone 14, high CHD1L protein expression
Description: as §2

## Cn1ncnc1[C@H]1c2n[nH]c(=O)c3cc(F)cc(c23)N[C@@H]1c1ccc(F)cc1 [BMN673]
EMF192A
  Response: resistant and Res
EMF192A; Homo sapiens, 1q21 NC
  IC50: 897 nM
HCC1187
  Response: sensitive and Sens
HCC1187; Homo sapiens, 1q21 AMP
  IC50: 1.09 nM
BT-474
  Response: resistant and Res
BT-474; Homo sapiens, 1q21 NC
  IC50: 595 nM
MCF7; Homo sapiens, 1q21 AMP
  IC50: 92.8 nM
MCF7
  Response: sensitive and Int
H1838
  Response: sensitive and Sens
H1838; Homo sapiens, NCI-H1838, 1q21 AMP
  IC50: 1.2 nM
HCC1937
  Response: Int
HCC1937; Homo sapiens, 1q21 LOH
  IC50: 84.2 nM
BT-20
  Response: resistant and Res
BT-20; Homo sapiens, 1q21 NC
  IC50: 352 nM
MDA-MB-436; Homo sapiens, 1q21 AMP
  IC50: 0.19 nM
MDA-MB-436
  Response: sensitive and Sens
184B5
  Response: resistant and Res
184B5; Homo sapiens, 1q21 NC
  IC50: 5480 nM
CaLu1
  Response: resistant and Res
CaLu1; Homo sapiens, Calu-1, 1q21 NC
  IC50: 2560 nM
H1651
  Response: sensitive and Sens
H1651; Homo sapiens, NCI-H1651, 1q21 AMP
  IC50: 6.31 nM
H1568
  Response: Int
H1568; Homo sapiens, NCI-H1568, 1q21 AMP
  IC50: 49.8 nM
184B5 parental cell line
  IC50: ~1000 nM
[1]
  IC50: 62 nM
[2]
  IC50: 30 nM
